Assay results: patent US6242494A, “Substituted β-amino acid inhibitors of methionine aminopeptidase-2” (Abbott Laboratories, priority 1999, dated 2001)
Structures can show the parent of a compound that is named as a salt.

Target: T1, methionine aminopeptidase-2 (MetAP2) (Homo sapiens, UniProt P50579)
T1 construct: made in house; host or cells: insect cells, baculovirus system (secreted, purified from culture supernatant)
Experiment: Inhibition of MetAP2 enzyme activity (96-well, Met-Ala-Ser substrate, L-amino acid oxidase/peroxidase/ortho-dianisidine, 450 nm)
Format: biochemical
Details: IC50, recombinant MetAP2 4 μg/mL, pH 7.4, Met-Ala-Ser substrate, 20 minutes

T1 sequence (P50579 whole entry): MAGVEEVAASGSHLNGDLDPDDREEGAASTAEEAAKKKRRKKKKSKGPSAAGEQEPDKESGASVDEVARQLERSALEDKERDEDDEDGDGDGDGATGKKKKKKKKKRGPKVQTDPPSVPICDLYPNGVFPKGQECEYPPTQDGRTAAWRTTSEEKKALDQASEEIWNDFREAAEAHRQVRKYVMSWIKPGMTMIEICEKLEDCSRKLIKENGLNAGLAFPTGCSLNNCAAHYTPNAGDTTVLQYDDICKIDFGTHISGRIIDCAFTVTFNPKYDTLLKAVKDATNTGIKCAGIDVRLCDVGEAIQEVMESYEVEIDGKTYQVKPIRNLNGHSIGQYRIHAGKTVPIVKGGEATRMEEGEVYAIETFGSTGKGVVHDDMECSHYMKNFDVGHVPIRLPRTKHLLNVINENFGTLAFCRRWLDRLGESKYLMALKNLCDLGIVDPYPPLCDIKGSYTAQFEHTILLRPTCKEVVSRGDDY

SMILES | IC50 [µM]
C[C@H](NC(=O)C(O)[C@H](N)CC1CCCCC1)C(=O)NCc1nc2ccccc2[nH]1 (stereo partly drawn) [Example 67, ((2RS,3R)-3-amino-2-hydroxy-4-cyclohexyl)butanoyl-L-alanyl-(2-benzimidazolemethyl)amide hydrochloride] | 13
C[C@H](NC(=O)C(O)[C@H](N)CC1CCCCC1)C(=O)Nc1cc(-c2ccccc2)[nH]n1 (stereo partly drawn) [Example 68, ((2RS,3R)-3-amino-2-hydroxy-4-cyclohexyl)butanoyl-L-alanyl-(5-phenyl-pyrazole-3)amide hydrochloride] | 3.8
C[C@H](NC(=O)C(O)[C@H](N)CC1CCCCC1)C(=O)Nc1cc([N+](=O)[O-])ccc1O (stereo partly drawn) [Example 69, ((2RS,3R)-3-amino-2-hydroxy-4-cyclohexyl)butanoyl-L-alanyl-(2-hydroxy-5-nitrophen-1-yl)amide hydrochloride] | 5.3
C[C@H](NC(=O)C(O)[C@H](N)CC1CCCCC1)C(=O)Nc1ncc(Br)s1 (stereo partly drawn) [Example 70, ((2RS,3R)-3-amino-2-hydroxy-4-cyclohexyl)butanoyl-L-alanyl-(5-bromothizole-2)amide hydrochloride] | 5.4
C[C@H](NC(=O)C(O)[C@H](N)CC1CCCCC1)C(=O)Nc1ccc([N+](=O)[O-])cc1O (stereo partly drawn) [Example 71, ((2RS,3R)-3-amino-2-hydroxy-4-cyclohexyl)butanoyl-L-alanyl-(4-nitro-2-hydroxyphen-1-yl)amide hydrochloride] | 12
CCn1nccc1NC(=O)[C@H](C)NC(=O)C(O)[C@H](N)CC1CCCCC1 (stereo partly drawn) [Example 72, ((2RS,3R)-3-amino-2-hydroxy-4-cyclohexyl)butanoylL-alanyl-(1-ethylpyrazole)amide hydrochloride] | 9.2
CCOC(=O)C1CCN(C(=O)C(O)[C@H](N)CC2CCCCC2)CC1 (stereo partly drawn) [Example 73, ((2RS,3R)-3-amino-2hydroxy-4-cyclohexyl)butanoyl-(ethylisonipecotate)amide hydrochloride] | 6.8
N[C@H](CC1CCCCC1)C(O)C(=O)NCCCn1ccnc1 (stereo partly drawn) [Example 74, ((2RS,3R)-3-amino-2-hydroxy-4-cyclohexyl)butanoyl-(3-imidazolylpropyl)amidedihydrochloride] | 30
C[C@H](NC(=O)C(O)[C@H](N)CC1CCCCC1)c1nc(C(=O)O)cs1 (stereo partly drawn) [Example 75, (2RS,3R)-3-amino-2-hydroxy-4-cyclohexyl)butanoyl-(4-carboxyl-2-(1'amino)ethyl thizole hydrochloride] | 9.4
N[C@H](CC1CCCCC1)C(O)C(=O)NCCCCNC(=O)OCc1ccccc1 (stereo partly drawn) [Example 77, (2RS,3R)-3-amino-2-hydroxy-4-cyclohexyl)butanoyl-(4-benzloxycarbonylamino)butylamide hydrochloride] | 3.3
N[C@H](CC1CCCCC1)C(O)C(=O)NCCNC(=O)OCc1ccccc1 (stereo partly drawn) [Example 78, hydrochloride] | 1.8
CCSCC[C@@H](N)C(O)C(=O)NCCCCCNS(=O)(=O)c1cccc2c(N(C)C)cccc12 (stereo partly drawn) [Example 79, dihydrochloride] | 0.1
Cc1ccc(S(=O)(=O)NCCCCNC(=O)C(O)[C@H](N)CC2CCCCC2)cc1 (stereo partly drawn) [Example 80, (2RS,3R)-3-amino-2-hydroxy-4-cyclohexyl)butanoyl-(4-(4-toluenesulfonyl)aminobutyl)amide hydrochloride] | 1.3
Cc1ccc(S(=O)(=O)NCCNC(=O)C(O)[C@H](N)CC2CCCCC2)cc1 (stereo partly drawn) [Example 81, (2RS,3R)-3-amino-2-hydroxy-4-cyclohexyl)butanoyl-(2-4-toluenesulfonylaminoethyl)amide hydrochloride] | 1.8
NCCCCNC(=O)C(O)[C@H](N)CC1CCCCC1 (stereo partly drawn) [Example 82, (2RS,3R)-3-amino-2-hydroxy-4-cyclohexyl)butanoyl-(4-aminobutyl)amide dihydrochloride] | 38
NCCNC(=O)C(O)[C@H](N)CC1CCCCC1 (stereo partly drawn) [Example 83, (2RS,3R)-3-amino-2-hydroxy-4-cyclohexyl)butanoyl-(2-aminoethyl)amide dihydrochloride] | 26
CC(=O)Nc1ccc(S(=O)(=O)NCCCCNC(=O)C(O)[C@H](N)CC2CCCCC2)cc1 (stereo partly drawn) [Example 86, (2RS,3R)-N-(4-(((4-(acetylamiono)phenyl)sulfonyl)amino)butyl)-3-amino-4-cyclohexyl-2-hydroxybutanamide hydrochloride] | 1.7
N[C@H](CC1CCCCC1)C(O)C(=O)NCCc1ccc(S(N)(=O)=O)cc1 (stereo partly drawn) [Example 88, (2RS,3R)-3-amino-2-hydroxy-4-cyclohexyl)butanoyl-L-alanine-4-sulfonamide benzyl ester hydrochloride] | 2.2
CC(C)(NC(=O)C(O)[C@H](N)CC1CCCCC1)C(=O)OCc1ccccc1 (stereo partly drawn) [Example 89, Hydrochloride] | 6.6

SMILES | IC50 [µM]
C[C@H](NC(=O)C(O)[C@H](N)CC1CCCCC1)C(=O)OC1CCCCC1 (stereo partly drawn) [Example 90, (2RS,3R)-3-Amino-2-hydroxy-4-cyclohexyl)butanoyl-L-alanine Cyclohexyl Ester Hydrochloride] | 2.3
C[C@H](NC(=O)C(O)[C@H](N)CC1CCCCC1)C(=O)OCc1ccccc1CS(=O)(=O)c1ccccc1 (stereo partly drawn) [Example 91, (2RS,3R)-3-Amino-2-hydroxy-4-cyclohexyl)butanoyl-L-alanine-2-((phenylsulfonyl)methyl)benzyl Ester Hydrochloride] | 2.3
C[C@H](NC(=O)C(O)[C@H](N)CC1CCCCC1)C(=O)OCc1ccc(C(C)(C)C)cc1 (stereo partly drawn) [Example 93, (2RS,3R)-3-Amino-2-hydroxy-4-cyclohexyl)butanoyl-L-alanine 4-tert-butylbenzyl Ester Hydrochloride] | 5.4
COC(=O)c1ccc(COC(=O)[C@H](C)NC(=O)C(O)[C@H](N)CC2CCCCC2)cc1 (stereo partly drawn) [Example 94, (2RS,3R)-3-Amino-2-hydroxy-4-cyclohexyl)butanoyl-L-alanine 4-methoxycarbonylbenzyl Ester Hydrochloride] | 0.91
C[C@H](NC(=O)C(O)[C@H](N)CC1CCCCC1)C(=O)OCc1ccc(C(F)(F)F)cc1 (stereo partly drawn) [Example 95, (2RS,3R)-3-Amino-2-hydroxy-4-cyclohexyl)butanoyl-L-alanine 4-trifluoromethylbenzyl Ester Hydrochloride] | 5.2
C[C@H](NC(=O)C(O)[C@H](N)CC1CCCCC1)C(=O)OCc1ccc(CC(=O)OCC(=O)c2ccccc2)cc1 (stereo partly drawn) [Example 96, (2RS,3R)-3-Amino-2-hydroxy-4-cyclohexyl)butanoyl-L-alanine-(4-(methyl)phenyl Acetic Acid Phenacyl Ester) Hydrochloride] | 2.9
N[C@H](CC1CCCCC1)C(O)C(=O)NCc1ccc(Cl)cc1Cl (stereo partly drawn) [Example 97, (2RS,3R)-3-Amino-4-cyclohexyl)-N-(2,4-dichlorobenzyl)-2-hydroxybutanamide Hydrochloride] | 3
CC(NC(=O)C(O)[C@H](N)CC1CCCCC1)c1cccc2ccccc12 (stereo partly drawn) [Example 101, (2RS,3R,1'RS)-3-Amino-4-cyclohexyl-2-hydroxy-N-(1-(1-naphthyl)ethyl)butanamide Hydrochloride] | 0.31
C[C@H](NC(=O)C(O)[C@H](N)Cc1ccccc1)C(=O)OCc1ccccc1 (stereo partly drawn) [Example 105, Hydrochloride] | 19
CCOC(=O)[C@H](CF)NC(=O)C(O)[C@H](N)CC1CCCCC1 (stereo partly drawn) [Example 135, ethyl (2RS,3R,2'R)-2-((3-amino-4-cyclohexyl-2-hydroxybutanoyl)amino)-3-fluoropropanoate trifluoroacetate] | 3.2
CC(C)(C)c1ccc(COC(=O)[C@@H](CO)NC(=O)C(O)[C@H](N)CC2CCCCC2)cc1 (stereo partly drawn) [Example 137, 4-(tert-butyl)benzyl (2RS,3R,2'R)-2-((3-amino-4-cyclohexyl-2-hydroxybutanoyl)amino-3-hydroxypropanoate trifluoroacetate] | 8.4
N[C@H](CC1CCCCC1)C(O)C(=O)N[C@@H](CO)C(=O)OCc1ccc([N+](=O)[O-])cc1 (stereo partly drawn) [Example 138, 4-nitrobenzyl (2RS,3R,2'S)-2-((3-amino-4-cyclohexyl-2-hydroxybutanoyl)amino-3-hydroxypropanoate trifluoroacetate] | 1.6
N[C@H](CC1CCCCC1)C(O)C(=O)N[C@@H](CO)C(=O)OCc1cccc([N+](=O)[O-])c1 (stereo partly drawn) [Example 139, 3-nitrobenzyl (2RS,3R,2'S)-2-((3-amino-4-cyclohexyl-2-hydroxybutanoyl)amino)-3-hydroxypropanoate trifluoroacetate] | 1.7
N[C@H](CC1CCCCC1)C(O)C(=O)N[C@@H](CO)C(=O)OCc1ccc(C(F)(F)F)cc1 (stereo partly drawn) [Example 140, 4-(trifluoromethyl)benzyl (2RS,3R,2'S)-2-((3-amino-4-cyclohexyl-2-hydroxybutanoyl)amino)-3-hydroxypropanoate trifluoroacetate] | 2.2
N[C@H](CC1CCCCC1)C(O)C(=O)N[C@@H](CO)C(=O)OCc1cccc(OC(F)(F)F)c1 (stereo partly drawn) [Example 141, 3-(trifluoromethoxy)benzyl (2RS,3R,2'S)-2-((3-amino-4-cyclohexyl-2-hydroxybutanoyl)amino)-3-hydropropanoate trifluoroacetate] | 3.7
CC(C)(C)c1ccc(NC(=O)C(O)[C@H](N)CC2CCCCC2)cc1 (stereo partly drawn) [Example 150] | 3.1
CC(C)(C)c1ccc(CNC(=O)C(O)[C@H](N)CC2CCCCC2)cc1 (stereo partly drawn) [Example 156, (2RS,3R)-3-amino-N-(4-tert-butyl)benzyl-4-cyclohexyl-2-hydroxybutanamide] | 3.9
N[C@H](CC1CCCCC1)C(O)C(=O)NCc1cccc(C(F)(F)F)c1 (stereo partly drawn) [Example 157] | 1.6
N[C@H](CC1CCCCC1)C(O)C(=O)NCCc1c(Cl)cccc1Cl (stereo partly drawn) [Example 165, (2RS,3R)-3-amino-4-cyclohexyl-N-(2,6-dichlorophenethyl)-2-hydroxybutanamidehydrochloride] | 0.26

Same assay, conditions: recombinant MetAP2 4 μg/mL, pH 7.4, Met-Ala-Ser substrate, 20 minutes

SMILES | IC50 [µM]
CCCC[C@H](NC(=O)C(O)[C@H](N)CC1CCCCC1)C(=O)OC (stereo partly drawn) [Example 129, methyl (2RS,3R,2'S)-2-((3-amino-4-cyclohexyl-2-hydroxybutanoyl)amino)hexanoate hydrochloride] | 27
